Test results published in patent US5889029A, “Use of cotinine in treating psychiatric disorders” (priority 1997, dated 1999).
Like-named read-outs stand apart in the source and are kept apart here.

What was measured:
[1] = in vivo, cited from earlier work
[2] = tested on: Serotonin (5HT1); test: Serotonin (5HT1) Binding Assay; conditions: Rat cortical membranes, [3H]Hydroxytryptamine binoxalate 3.0 nM
[3] = target: T1, Histamine (H3) (Rattus norvegicus, UniProt Q9QYN8); test: Histamine (H3) Binding Assay; conditions: Rat forebrain membranes, [3H]N^a-methylhistamine 0.2 nM, read-out: Receptor Binding Activity Percent Inhibition Average (N = 2)
T1 construct: Rat forebrain membranes; from tissue; host or cells: rat forebrain membranes

[4] = target: T2, Inositol Triphosphate (IP3) (Rattus norvegicus, UniProt P29994); test: Inositol Triphosphate (IP3) Binding Assay; conditions: Rat cerebellar membranes, [3H]IP3 4.0 nM, read-out: Receptor Binding Activity Percent Inhibition Average (N = 2)
T2 construct: Rat cerebellar membranes; from tissue; host or cells: rat cerebellar membranes
Experimental: Tissue cultures were prepared using standard laboratory practice for the following tissues: human recombinant M1 clone, human recombinant M2 clone, guinea pig striatal membranes, rat cortical membranes, rat striatal membranes, rat forebrain membranes, bovine hippocampal membranes, guinea pig cerebellar membranes, rat kidney membranes, recombinant rat 5HT7 clone, and rat cerebellar membranes.
Inositol Triphosphate (IP3) Binding Assay
Rat cerebellar membranes
Radioligand: [^3 H]IP3 (10-30 Ci/mmol)
Final ligand concentration - [4.0 nM]
D-myo-inositol 1,4,5-triphosphate
Reactions are carried out in 50 mM TRIS-HCl (pH 8.3)
1 mM EDTA at 0° C. for 10 minutes. The reaction is
rapid vacuum filtration onto glass fiber filters.
onto the filters is determined and compared to control
order to ascertain any interactions of test compound with
inositol triphospate binding site.

[5] = cited from earlier work
[6] = target: T3, Benzodiazepine (Peripheral) (Rattus norvegicus, UniProt P16257); test: Benzodiazepine (Peripheral) Binding Assay; conditions: read-out: Receptor Binding Activity Percent Inhibition Average (N = 2)
T3 construct: Rat kidney membranes; from tissue; host or cells: rat kidney membranes

[7] = target: T4, Serotonin (5HT1A) (Bos taurus, UniProt F6Q2H9); test: Serotonin (5HT1A) Binding Assay; design: species or system Bovine; conditions: Bovine hippocampal membranes, [3H]-8-OH-DPAT 1.0 nM, read-out: Receptor Binding Activity Percent Inhibition Average (N = 2)
T4 construct: Bovine hippocampal membranes; from tissue; host or cells: bovine hippocampal membranes
T4 sequence (F6Q2H9 1-422): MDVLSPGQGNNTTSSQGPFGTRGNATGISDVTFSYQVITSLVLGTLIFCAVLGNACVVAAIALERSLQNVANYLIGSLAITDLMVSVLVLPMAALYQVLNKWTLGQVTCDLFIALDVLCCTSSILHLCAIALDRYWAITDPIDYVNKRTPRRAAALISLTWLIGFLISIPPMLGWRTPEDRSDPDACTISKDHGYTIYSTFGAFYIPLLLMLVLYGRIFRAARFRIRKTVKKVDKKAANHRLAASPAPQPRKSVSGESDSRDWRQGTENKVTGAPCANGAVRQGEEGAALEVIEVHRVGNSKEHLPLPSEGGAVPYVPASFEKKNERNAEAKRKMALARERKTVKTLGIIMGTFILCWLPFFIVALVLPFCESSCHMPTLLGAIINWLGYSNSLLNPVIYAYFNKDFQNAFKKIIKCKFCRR

T2 sequence (P29994 whole entry): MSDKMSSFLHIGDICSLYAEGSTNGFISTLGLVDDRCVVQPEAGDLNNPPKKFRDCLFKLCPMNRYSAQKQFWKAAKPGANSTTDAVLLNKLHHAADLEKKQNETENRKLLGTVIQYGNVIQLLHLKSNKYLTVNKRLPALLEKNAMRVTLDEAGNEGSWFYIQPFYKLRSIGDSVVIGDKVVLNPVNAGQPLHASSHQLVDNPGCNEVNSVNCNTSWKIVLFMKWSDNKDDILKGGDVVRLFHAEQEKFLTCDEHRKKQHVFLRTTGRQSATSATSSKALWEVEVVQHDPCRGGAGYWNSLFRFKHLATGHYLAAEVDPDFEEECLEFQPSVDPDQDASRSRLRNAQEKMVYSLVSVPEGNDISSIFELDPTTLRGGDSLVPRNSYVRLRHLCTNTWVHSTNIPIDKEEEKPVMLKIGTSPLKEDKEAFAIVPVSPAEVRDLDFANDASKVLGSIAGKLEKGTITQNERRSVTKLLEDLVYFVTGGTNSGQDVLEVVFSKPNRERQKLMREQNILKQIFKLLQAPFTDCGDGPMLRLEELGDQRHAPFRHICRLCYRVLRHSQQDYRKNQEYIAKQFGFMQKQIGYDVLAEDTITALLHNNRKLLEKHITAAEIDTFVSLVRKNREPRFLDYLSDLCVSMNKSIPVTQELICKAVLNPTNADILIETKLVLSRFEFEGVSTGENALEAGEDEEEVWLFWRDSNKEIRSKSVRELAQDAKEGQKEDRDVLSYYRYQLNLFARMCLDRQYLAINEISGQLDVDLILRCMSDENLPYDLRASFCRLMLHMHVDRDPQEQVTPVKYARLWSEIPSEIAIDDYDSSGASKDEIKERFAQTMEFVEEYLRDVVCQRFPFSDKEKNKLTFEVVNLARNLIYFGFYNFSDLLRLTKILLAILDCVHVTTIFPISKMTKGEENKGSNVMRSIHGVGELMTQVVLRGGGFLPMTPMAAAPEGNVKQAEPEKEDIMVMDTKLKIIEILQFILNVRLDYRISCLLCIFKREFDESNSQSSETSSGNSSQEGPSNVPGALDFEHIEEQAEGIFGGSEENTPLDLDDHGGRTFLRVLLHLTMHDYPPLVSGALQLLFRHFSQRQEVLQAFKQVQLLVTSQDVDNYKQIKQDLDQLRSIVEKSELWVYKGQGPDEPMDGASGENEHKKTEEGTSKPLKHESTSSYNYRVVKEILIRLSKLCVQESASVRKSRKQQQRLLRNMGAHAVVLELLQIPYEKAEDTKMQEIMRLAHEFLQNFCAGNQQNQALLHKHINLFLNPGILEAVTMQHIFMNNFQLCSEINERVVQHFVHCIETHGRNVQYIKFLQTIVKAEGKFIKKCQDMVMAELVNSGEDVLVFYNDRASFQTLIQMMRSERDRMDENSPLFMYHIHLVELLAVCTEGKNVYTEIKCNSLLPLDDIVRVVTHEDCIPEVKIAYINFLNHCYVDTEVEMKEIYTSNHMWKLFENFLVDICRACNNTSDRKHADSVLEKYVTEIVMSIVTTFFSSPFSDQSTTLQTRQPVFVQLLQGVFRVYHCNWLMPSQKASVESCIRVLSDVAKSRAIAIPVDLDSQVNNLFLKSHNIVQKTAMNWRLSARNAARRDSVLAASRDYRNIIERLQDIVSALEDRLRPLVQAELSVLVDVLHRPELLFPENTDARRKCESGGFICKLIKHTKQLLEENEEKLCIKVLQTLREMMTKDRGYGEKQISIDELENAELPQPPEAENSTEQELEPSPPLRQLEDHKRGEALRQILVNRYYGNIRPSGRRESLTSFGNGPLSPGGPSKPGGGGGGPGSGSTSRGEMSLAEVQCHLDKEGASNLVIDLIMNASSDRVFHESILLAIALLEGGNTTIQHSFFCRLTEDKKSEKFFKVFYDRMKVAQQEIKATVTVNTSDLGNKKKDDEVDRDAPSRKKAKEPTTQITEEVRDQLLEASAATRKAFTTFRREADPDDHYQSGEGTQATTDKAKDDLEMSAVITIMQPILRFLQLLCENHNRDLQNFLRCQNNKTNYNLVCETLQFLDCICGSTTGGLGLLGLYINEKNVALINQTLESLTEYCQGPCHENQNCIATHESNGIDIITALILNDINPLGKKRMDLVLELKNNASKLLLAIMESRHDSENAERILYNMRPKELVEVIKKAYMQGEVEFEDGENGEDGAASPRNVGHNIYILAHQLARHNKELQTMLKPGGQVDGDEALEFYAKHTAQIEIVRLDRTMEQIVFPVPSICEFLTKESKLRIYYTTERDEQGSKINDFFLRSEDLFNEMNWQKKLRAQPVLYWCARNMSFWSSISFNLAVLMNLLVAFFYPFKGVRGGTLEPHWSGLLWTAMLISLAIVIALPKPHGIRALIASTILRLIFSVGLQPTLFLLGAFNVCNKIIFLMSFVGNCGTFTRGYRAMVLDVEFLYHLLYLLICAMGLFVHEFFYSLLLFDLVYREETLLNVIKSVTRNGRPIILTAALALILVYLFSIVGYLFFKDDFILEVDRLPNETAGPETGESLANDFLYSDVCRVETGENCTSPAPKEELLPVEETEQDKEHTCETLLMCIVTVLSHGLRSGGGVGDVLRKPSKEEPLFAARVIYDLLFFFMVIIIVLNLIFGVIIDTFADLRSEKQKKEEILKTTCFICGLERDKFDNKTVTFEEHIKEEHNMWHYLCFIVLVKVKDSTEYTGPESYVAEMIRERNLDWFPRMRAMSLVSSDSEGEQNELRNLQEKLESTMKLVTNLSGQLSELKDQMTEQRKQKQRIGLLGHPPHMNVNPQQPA
T1 sequence (Q9QYN8 whole entry): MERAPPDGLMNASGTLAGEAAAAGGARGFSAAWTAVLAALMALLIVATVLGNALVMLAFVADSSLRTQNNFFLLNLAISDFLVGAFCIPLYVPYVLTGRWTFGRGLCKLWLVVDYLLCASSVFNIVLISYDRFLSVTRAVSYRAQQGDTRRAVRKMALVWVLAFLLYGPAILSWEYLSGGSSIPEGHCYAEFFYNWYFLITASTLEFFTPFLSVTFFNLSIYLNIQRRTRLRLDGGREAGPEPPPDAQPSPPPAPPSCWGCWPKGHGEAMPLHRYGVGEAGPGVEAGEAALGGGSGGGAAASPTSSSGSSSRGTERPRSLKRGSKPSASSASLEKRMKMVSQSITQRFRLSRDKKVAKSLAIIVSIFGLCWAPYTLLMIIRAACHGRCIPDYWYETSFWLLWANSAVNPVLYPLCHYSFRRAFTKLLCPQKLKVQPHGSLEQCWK
T3 sequence (P16257 whole entry): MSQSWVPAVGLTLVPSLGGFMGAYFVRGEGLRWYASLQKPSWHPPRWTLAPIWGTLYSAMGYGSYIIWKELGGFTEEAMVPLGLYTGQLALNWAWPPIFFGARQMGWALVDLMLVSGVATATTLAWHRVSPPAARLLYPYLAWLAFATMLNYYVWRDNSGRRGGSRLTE

Question: Which results are given for `CN1C(=O)CCC1c1cccnc1` (single isomer, unassigned) [Cotinine, 1-methyl-5-(3-pyridinyl)-2-pyrrolidionone]?
Answer: passage of the blood-brain barrier [1]: pass the blood-brain barrier; passage of the blood-brain barrier ([1]; listed as cotinine): capable of passing the blood-brain barrier; Receptor Binding Activity Percent Inhibition Average (N = 2) ([2]; 10^-4 M): -0.8%; Receptor Binding Activity Percent Inhibition Average (N = 2) ([2]; 10^-6 M): 10.9%; inhibition at 100 µM ([3]; 10^-4 M): 15.7%; inhibition at 1 µM ([3]; 10^-6 M): 11.9%; inhibition at 100 µM ([4]; 10^-4 M): 8.3%; inhibition at 1 µM ([4]; 10^-6 M): 4.8%; terminal elimination half-life ([5]; human, in vivo): about 16 hours; half-life ([5]; in the human, in vivo): 16 to 17 h; oral bioavailability ([5]; in vivo, po): complete; terminal elimination half-life ([5]; in vivo): sixteen; blood concentration in smokers ([5]; nicotine: one-pack-a-day smoker, cotinine: one-half-pack-a-day smoker): about 300 ng/ml; concentration ([5]; read-out: blood concentration in smokers, nicotine: one-pack-a-day smoker, cotinine: one-half-pack-a-day smoker): ~2000 nM; inhibition at 1 µM [6]: 8.5%; inhibition at 100 µM [6]: 1.4%; inhibition at 100 µM ([7]; 10^-4 M): 1.4%; inhibition at 1 µM ([7]; 10^-6 M): 1.1%
